In patent US11142527B2, “Dihydropyrimidine compounds and uses thereof in medicine” (SUNSHINE LAKE PHARMA CO., LTD., priority 2017, dated 2021) one finds EC50 data, which are given here for 17 molecules.

Structures are written as SMILES.

The subject of this experiment is HBV. As to the kind of experiment: Test of anti HBV activity in vitro (viral DNA by qPCR). The format is cell-based. The conditions noted are these: Hepatitis B virus; HepG2.2.15 cells, viral DNA in cell culture supernatant by qPCR; read-out: EC50 values of the compound of the invention on viral replication. On the procedure: Test 1: Test Method of Calculating Anti HBV EC50
HBV Cell Line and Culture Conditions
HepG2.2.15 (SELLS, PNAS, 1987 and SELLS, JV, 1988) chromosomes have an integrated complete HBV genome, and stably express viral RNA and viral protein. HepG2.2.15 cells can secrete mature HBV particles, HBsAg and HBeAg, to medium. HepG2.2.15 cells were cultured in DMEM containing 10% fetal bovine serum, 100 U/mL penicillin, 100 U/mL streptomycin, 1% non essential amino acid, 1 mM sodium pyruvate and 300 μg/mL G418.
Viral particles DNA secreted from HepG2.2.15 cells can be quantified by qPCR, and the effect of the compound on viral replication can be detected.
Test of Anti HBV Activity In Vitro
8000 HepG 2.2.15 cells per well were seeded into a 96-well plate, the plate was cultured at 37° C. and 5% CO2 for 3 days till the cells grew to full wells. Old liquid medium can be removed and replaced with new medium (200 μL) on day 0.
Formulating the compound and treating the cells in the experiment of anti virus: the compound was dissolved in DMSO to a concentration of 30 mM, and then the compound solution was diluted with DMSO to a concentration of 800 μM, and then eight dilutions at 4 fold were performed, the highest concentration is 800 μM. The serial diluted compound was added to the above plate at 1 μL per well, the highest final concentration in the experiment is 4 μM (200 fold dilution). TDF (tenofovir dipiroxil fumarate, Selleck, Cat S1400) has a highest concentration of 4 μM as a positive control. 1 μL of DMSO was added in to the […] at a final concentration of 0.5%, TDF was added in to the […] at a final concentration of 1 μM.
Detection of Viral Genomic DNA by aPCR
Primer: HBV-For-202, […]; HBV-Rev-315, […]. Copies of virus can be calculated using a standard curve plotted by using plasmid containing HBV genome and using SYBR Premix Ex Taq II—Takara DRR081S kit and 1 μL cell culture supernatant as a template. EC50 values of the compound on viral replication were calculated by a four parametric nonlinear regression model using Graphpad Prism 5 software to manage concentration—viral copy number.
Take `COC(=O)C1=C(CN2CCN3C(=O)N(c4ccc(-c5ccc(C(C)(C)C(=O)O)cc5)cc4)C[C@@H]3C2)NC(c2nccs2)=N[C@H]1c1ccc(F)cc1Cl` [Example 18, 2-(4′-((S)-7-(((R)-6-(2-chloro-4-fluorophenyl)-5-(methoxycarbonyl)-2-(thiazol-2-yl)-3,6-dihydropyrimidin-4-yl)methyl)-3-oxohexahydroimidazo[1,5-a]pyrazin-2(3H)-yl)-[1,1′-diphenyl]-4-yl)-2-methyl propionic acid]: the EC50 came out at 13 nM.
Regarding `COC(=O)C1=C(CN2CCN3C(=O)N(c4nc(-c5cccc(CCC(=O)O)c5)cs4)C[C@@H]3C2)NC(c2nccs2)=N[C@H]1c1ccc(F)cc1Cl` [Example 140, 3-(3-(2-((S)-7-(((R)-6-(2-chloro-4-fluorophenyl)-5-(methoxycarbonyl)-2-(thiazol-2-yl)-3,6-dihydropyrimidin-4-yl)methyl)-3-oxohexahydroimidazo[1,5-a]pyrazin-2(3H)-yl)thiazol-4-yl)phenyl)propanoic acid], the EC50 amounted to 18.3 nM.
On to `COC(=O)C1=C(CN2CCN3C(=O)N(c4ccc(-c5ccc(C(=O)O)c(F)c5)cc4F)C[C@@H]3C2)NC(c2nccs2)=N[C@H]1c1ccc(F)cc1Cl` [Example 121, 4′-((S)-7-(((R)-6-(2-chloro-4-fluorophenyl)-5-(methoxycarbonyl)-2-(thiazol-2-yl)-3,6-dihydropyrimidin-4-yl)methyl)-3-oxohexahydroimidazo[1,5-a]pyrazin-2(3H)-yl)-3,3′-difluoro-[1,1′-biphenyl]-4-carboxylic acid], for which the EC50 was determined as 36.4 nM.
Next, `COC(=O)C1=C(CN2CCN3C(=O)N(c4ccc(Oc5ccc(C(=O)O)cc5F)cc4F)C[C@@H]3C2)NC(c2nccs2)=N[C@H]1c1ccc(F)cc1Cl` [Example 14, 4-(4-((S)-7-(((R)-6-(2-chloro-4-fluorophenyl)-5-(methoxycarbonyl)-2-(thiazol-2-yl)-3,6-dihydropyrimidin-4-yl)methyl)-3-oxohexahydroimidazo[1,5-a]pyrazin-2(3H)-yl)-3-fluorophenoxy)-3-fluorobenzoic acid]: 22.7 nM; `COC(=O)C1=C(CN2CCN3C(=O)N(c4ccc(C5(C(=O)O)CCCCC5)cc4)C[C@@H]3C2)NC(c2nccs2)=N[C@H]1c1ccc(F)cc1Cl` [Example 30, 1-(4-((S)-7-(((R)-6-(2-chloro-4-fluorophenyl)-5-(methoxycarbonyl)-2-(thiazol-2-yl)-3,6-dihydropyrimidin-4-yl)methyl)-3-oxohexahydroimidazo[1,5-a]pyrazin-2(3H)-yl)phenyl) cyclohexanecarboxylic acid]: 9 nM.
On to `COC(=O)C1=C(CN2CCN3C(=O)N(CC#Cc4ccc(OC)cc4)C[C@@H]3C2)NC(c2nccs2)=N[C@H]1c1ccc(F)cc1Cl` [Example 45, (R)-methyl 4-(2-chloro-4-fluorophenyl)-6-(((S)-2-(3-(4-methoxyphenyl)prop-2-yn-1-yl)-3-oxohexahydroimidazo[1,5-a]pyrazin-7(1H)-yl)methyl)-2-(thiazol-2-yl)-1,4-dihydropyrimidine-5-carboxylate], for which the EC50 was 14.4 nM.
Regarding `COC(=O)C1=C(CN2CCN3C(=O)N(c4ccc(Oc5ccc(CCC(=O)O)cc5F)cc4F)C[C@@H]3C2)NC(c2nccs2)=N[C@H]1c1ccc(F)cc1Cl` [Example 101, 3-(4-(4-((S)-7-(((R)-6-(2-chloro-4-fluorophenyl)-5-(methoxycarbonyl)-2-(thiazol-2-yl)-3,6-dihydropyrimidin-4-yl)methyl)-3-oxohexahydroimidazo[1,5-a]pyrazin-2(3H)-yl)-3-fluorophenoxy)-3-fluorophenyl)propanoic acid], the EC50 is 14.8 nM.
Turning to `COC(=O)C1=C(CN2CCN3C(=O)N(c4ccc(-c5ccc(C(=O)O)cc5)cc4F)C[C@@H]3C2)NC(c2nccs2)=N[C@H]1c1ccc(F)cc1Cl` [Example 113, 4′-((S)-7-(((R)-6-(2-chloro-4-fluorophenyl)-5-(methoxycarbonyl)-2-(thiazol-2-yl)-3,6-dihydropyrimidin-4-yl)methyl)-3-oxohexahydroimidazo[1,5-a]pyrazin-2(3H)-yl)-3′-fluoro-[1,1′-biphenyl]-4-carboxylic acid], the EC50 stood at 23.9 nM.
Consider `COC(=O)C1=C(CN2CCN3C(=O)N(CC#Cc4cccc(C(=O)O)c4)C[C@@H]3C2)NC(c2nccs2)=N[C@H]1c1ccc(F)cc1Cl` [Example 2, 3-(3-((S)-7-(((R)-6-(2-chloro-4-fluorophenyl)-5-(methoxycarbonyl)-2-(thiazol-2-yl)-3,6-dihydropyrimidin-4-yl)methyl)-3-oxohexahydroimidazo[1,5-a]pyrazin-2(3H)-yl)prop-1-yn-1-yl)benzoic acid], for which the EC50 is 10.4 nM.
Next, `COC(=O)C1=C(CN2CCN3C(=O)N(c4nc(-c5ccc(C(=O)O)cc5)cs4)C[C@@H]3C2)NC(c2nccs2)=N[C@H]1c1ccc(F)cc1Cl` [Example 15, 4-(2-((S)-7-(((R)-6-(2-chloro-4-fluorophenyl)-5-(methoxycarbonyl)-2-(thiazol-2-yl)-3,6-dihydropyrimidin-4-yl)methyl)-3-oxohexahydroimidazo[1,5-a]pyrazin-2(3H)-yl)thiazol-4-yl)benzoic acid]: 10.8 nM.
As to `COC(=O)C1=C(CN2CCN3C(=O)N(c4nc(-c5ccc(CC(=O)O)cc5)cs4)C[C@@H]3C2)NC(c2nccs2)=N[C@H]1c1ccc(F)cc1Cl` [Example 134, 2-(4-(2-((S)-7-(((R)-6-(2-chloro-4-fluorophenyl)-5-(methoxycarbonyl)-2-(thiazol-2-yl)-3,6-dihydropyrimidin-4-yl)methyl)-3-oxohexahydroimidazo[1,5-a]pyrazin-2(3H)-yl)thiazol-4-yl)phenyl)acetic acid], the EC50 amounted to 4 nM.
For the molecule `COC(=O)C1=C(CN2CCN3C(=O)N(C(C)(C)c4ccc(-c5ccc(C(=O)O)cc5)cc4)C[C@@H]3C2)NC(c2nccs2)=N[C@H]1c1ccc(F)cc1Cl` (stereo in doubt) [Example 11, 4′-(2-((S)-7-(((R)-6-(2-chloro-4-fluorophenyl)-5-(methoxycarbonyl)-2-(thiazol-2-yl)-3,6-dihydropyrimidin-4-yl)methyl)-3-oxohexahydroimidazo[1,5-a]pyrazin-2(3H)-yl)prop-2-yl)-[1,1′-diphenyl]-4-carboxylic acid], the EC50 came out at 32.5 nM.
For `COC(=O)C1=C(CN2CCN3C(=O)N(c4ccc(C5(C(=O)O)CCC5)cc4)C[C@@H]3C2)NC(c2nccs2)=N[C@H]1c1ccc(F)cc1Cl` [Example 28, 1-(4-((S)-7-(((R)-6-(2-chloro-4-fluorophenyl)-5-(methoxycarbonyl)-2-(thiazol-2-yl)-3,6-dihydropyrimidin-4-yl)methyl)-3-oxohexahydroimidazo[1,5-a]pyrazin-2(3H)-yl)phenyl)cyclobutane carboxylic acid], the EC50 amounted to 4 nM.
With `COC(=O)C1=C(CN2CCN3C(=O)N(c4ccc(N5CCOC(CC(=O)O)C5)cc4)C[C@@H]3C2)NC(c2nccs2)=N[C@H]1c1ccc(F)cc1Cl` (stereo partly drawn) [Example 76, 2-(4-(4-((S)-7-(((R)-6-(2-chloro-4-fluorophenyl)-5-(methoxycarbonyl)-2-(thiazol-2-yl)-3,6-dihydropyrimidin-4-yl)methyl)-3-oxohexahydroimidazo[1,5-a]pyrazin-2(3H)-yl)phenyl)morpholin-2-yl)acetic acid], the EC50 came to 5.4 nM.
In the case of `COC(=O)C1=C(CN2CCN3C(=O)N(CC#Cc4ccc(C(=O)O)cc4)C[C@@H]3C2)NC(c2nccs2)=N[C@H]1c1ccc(F)cc1Cl` [Example 1, 4-(3-((S)-7-(((R)-6-(2-chloro-4-fluorophenyl)-5-(methoxycarbonyl)-2-(thiazol-2-yl)-3,6-dihydropyrimidin-4-yl)methyl)-3-oxohexahydroimidazo[1,5-a]pyrazin-2(3H)-yl)prop-1-yn-1-yl)benzoic acid], the EC50 turned out to be 8.45 nM.
As to `COC(=O)C1=C(CN2CCN3C(=O)N(CC#Cc4ccc(C(=O)O)cc4F)C[C@@H]3C2)NC(c2nccs2)=N[C@H]1c1ccc(F)cc1Cl` [Example 4, 4-(3-((S)-7-(((R)-6-(2-chloro-4-fluorophenyl)-5-(methoxycarbonyl)-2-(thiazol-2-yl)-3,6-dihydropyrimidin-4-yl)methyl)-3-oxohexahydroimidazo[1,5-a]pyrazin-2(3H)-yl)prop-1-yn-1-yl)-3-fluorobenzoic acid], the EC50 worked out at 19.8 nM.
In the case of `COC(=O)C1=C(CN2CCN3C(=O)N(c4ccc(-c5cnc(C)[nH]5)cc4)C[C@@H]3C2)NC(c2nccs2)=N[C@H]1c1ccc(F)cc1Cl` [Example 107, (R)-methyl 4-(2-chloro-4-fluorophenyl)-6-(((S)-2-(4-(2-methyl-1H-imidazol-5-yl)phenyl)-3-oxohexahydroimidazo[1,5-a]pyrazin-7(1H)-yl)methyl)-2-(thiazol-2-yl)-1,4-dihydropyrimidine-5-carboxylate], the EC50 was determined as 6.5 nM.
